The viability is a read-out of living cells in per cent, often relative to untreated cells.

A short description of this data set: in vitro. To be noted: human, hela cells.

Consider `COc1cnc(C(=O)NCCc2ccc(S(=O)(=O)NC(=O)NC3CCCCC3)cc2)cn1` [CBK011761], for which the viability at 28.5 h, 10 µM (% viability) is 104%. The same measure, in the same setting: in the case of `CC(C)OC(=O)CCNC(=O)c1cccc(S(=O)(=O)N2CCCC2)c1` [CBK306090] it was 91.1%; in that of `O=C(O)Cc1csc(SCc2cc(F)cc3c2OC(c2ccccc2)OC3)n1` (stereo not drawn) [CBK295158], 107%. Same read-out and setting: in the case of `Cc1ccc(C2=CCN(CC(=O)NC3CCCC3)CC2)o1` [CBK283605] it was 92%; in that of `Cc1cccc(CN2CCC(NC(=O)c3cn(C(C)(C)C)nn3)CC2)c1` [CBK305927], 92%. On the same count and under the same terms, in the case of `CC(NC(=O)c1ccc(F)cc1Cl)c1ccccc1` (stereo not drawn) [CBK270317] it was 89.3%; in that of `O=C(CN1CCOCC1)N/N=C/c1cc2ccccc2nc1Cl` [CBK262732], 101%; in that of `Nn1cnnc1SC1CCCCC1NS(=O)(=O)c1ccccc1` (stereo not drawn) [CBK266361], 95.7%.

Consider `N#CC(C(=O)CN1CCN(Cc2ccccc2)CC1)c1ccccc1` (stereo not drawn) [CBK269386], for which the viability at 28.5 h, 10 µM (% viability) was determined as 99.6%.

As for `COc1ccc2[nH]cc(CCNC(=O)/C=C/c3ccc(C(C)C)cc3)c2c1` [CBK149639], the viability at 28.5 h, 10 µM (% viability) turned out to be 91.7%. `O=C(NCc1ccccc1)c1ccc(CN2CCC(Cc3ccccc3)CC2)cc1` [CBK263432]: for the setting “% viability”, the viability at 28.5 h, 10 µM came out at 87.5%. Still for that read-out and setting: next, `COc1ccc(-c2nc(NC(=O)CC#N)cnc2-c2ccc(F)cc2)cc1` [CBK037198]: 104%; `COc1ccc(S(=O)(=O)NCc2ccc3c(c2)OCO3)cc1C(=O)O` [CBK264070]: 97.6%; `CSc1cccc(NC(=O)Nc2ccc3c(c2)OCCO3)c1` [CBK300527]: 104%. Still for that read-out and setting: next, `CCc1c(Cc2[nH]c(C)c(C(C)=O)c2C)[nH]c(C(=O)O)c1C` [CBK286717]: 91.3%; `Clc1ccc(SCCN2CCOCC2)cc1` [CBK265055G]: 98.8%. For `CC(C)C(Nc1nc2ncn(Cc3ccccc3)c2c(=O)[nH]1)C(=O)O` (stereo not drawn) [CBK261685], the viability at 28.5 h, 10 µM (% viability) came to 91.2%. The same measure, in the same setting: next, `O=C(c1cc2c(F)cccc2[nH]1)N(CCO)CCc1ccncc1` [CBK281644]: 98.3%; `Cc1cc(NC(=O)CNC(=O)c2ccccc2)no1` [CBK073427]: 99.7%; `CC1(Cc2ccn[nH]2)SCCCS1` [CBK019308C]: 109%. In the case of `COc1cc(NC(=O)c2c(C)[nH]c(=O)[nH]c2=S)cc(C(F)(F)F)c1` [CBK115495], the viability at 28.5 h, 10 µM (% viability) was found to be 92.3%.

With `Cc1cc(C)n(CC(C)CNC(=O)NCCN2CCCCCC2=O)n1` (stereo not drawn) [CBK305389], where the note is “% viability”, the viability at 28.5 h, 10 µM is 92%. Same read-out and setting: next, `Cc1ccc(CNC(=O)Cn2nnc(-c3ccc(CN4CCCC(C(F)(F)F)C4)cc3)n2)cc1` (stereo not drawn) [CBK144562C]: 109%.

Turning to `Cc1nc2c(c(=O)[nH]1)CCN(Cc1cccc(Oc3ccccc3)c1)C2` [CBK283989], the viability at 28.5 h, 10 µM (% viability) was determined as 81.9%. On the same count and under the same terms, next, `Oc1c(Br)cc2oc3c(c2c1CNc1ccccc1)CCCC3` [CBK160397]: 103%; `COc1cccc(CC(=O)N2CCC[C@@H](N)[C@@H]2c2ccccc2F)c1` [CBK283455]: 84.5%; `O=C(O)c1cccc(C(=O)c2cccc(C(=O)O)c2)c1` [CBK263933]: 99.1%. Same read-out and setting: in the case of `CC(C)CNC(=O)N1CCN(Cc2ccccc2)CC1` [CBK155644] it was 110%. The same measure, in the same setting: next, `COCC(=O)N1CCc2sccc2C1c1ccc(NC(=O)c2ccc(OC)cc2)cc1` (stereo not drawn) [CBK286467]: 103%; `O=C(Nc1cccc(F)c1)c1cc2ccccc2cc1O` [CBK016863]: 102%.

Turning to `O=C(Cn1c2ccccc2c(=O)c2ccccc21)Nc1ccc(-n2cncn2)nc1` [CBK295350], for the setting “% viability”, the viability at 28.5 h, 10 µM was 93.1%.

Regarding `Cc1cccc(C)c1NC(=O)CN1CCC(Oc2cncc(OCC3COc4ccccc4O3)n2)C1` (stereo not drawn) [CBK084373], the viability at 28.5 h, 10 µM (% viability) was 98.5%. Take `CCN(CC)CCN(C(=O)c1cnn(C)c1C)C1CCS(=O)(=O)C1` (stereo not drawn) [CBK305321]: under “% viability”, the viability at 28.5 h, 10 µM was 89.1%. Still for that read-out and setting: in the case of `O=c1[nH]cc(COCc2ccccc2)c(=O)[nH]1` [CBK261847] it was 94%.

`Cc1nnc(CN(C)C2CCN(CCCc3ccccc3)C2)n1C` (stereo not drawn) [CBK304000]: the viability at 28.5 h, 10 µM (% viability) came out at 115%. Consider `O=[N+]([O-])c1ccc2c(c1)C(N1CCOCC1)/C(=C/C1(O)CCCCC1)O2` (stereo not drawn) [CBK263200], for which the viability at 28.5 h, 10 µM (% viability) amounted to 103%.

As to `COc1ccc(Nc2cccc(-c3ccc(CCC(=O)O)cc3)n2)cc1` [CBK036943], where the note is “% viability”, the viability at 28.5 h, 10 µM was found to be 106%. The same measure, in the same setting: next, `CCN(CC)C(=O)c1ccccc1NS(=O)(=O)Cc1ccccc1[N+](=O)[O-]` [CBK045428]: 99.9%; `O=C(Nc1ccccc1C(=O)N1CCN(Cc2ccccc2)CC1)c1ccc(F)cc1` [CBK264948]: 99.3%. Consider `c1ccc([C@@H]2CN(Cc3ccncc3)C[C@H]2c2cc[nH]n2)cc1` [CBK285161], for which the viability at 28.5 h, 10 µM (% viability) came out at 88%.

As to `Cc1ccc(C(=O)C2(O)CCN(CCCC(c3ccc(F)cc3)c3ccc(F)cc3)CC2)cc1` [CBK025221C], the viability at 28.5 h, 10 µM (% viability) is 90.6%. Still for that read-out and setting: next, `COCCN(CC1CC1)C(=O)NCc1cccc(Cl)c1` [CBK304368]: 93.4%; `Brc1cn2c(-c3ccccc3)cnc2c(N2CCCC2)n1` [CBK091488]: 106%. Same read-out and setting: next, `COc1ccc(C(=O)Nc2nnc[nH]2)cc1` [CBK025569]: 90.8%; `Cn1c(SCC(=O)Nc2cccc(C(=O)O)c2)nnc1-c1ccccc1` [CBK300479]: 96.1%; `CCn1cncc1CN1CC2CCCC(O)(c3ccc(F)cc3)C2C1` (stereo not drawn) [CBK282119]: 104%. The same measure, in the same setting: next, `CC(C)(C)OC(=O)N1CCC(C2OCc3cc(-c4ccc(C(=O)N5CCOCC5)o4)ccc3O2)CC1` (stereo not drawn) [CBK173615]: 85.6%; `Cc1ccc(-c2ncc(OCCC(C)C)nc2N)cc1C` [CBK145145]: 90.5%. Turning to `COc1ccc(CCNC(=O)c2ccn[nH]2)cc1OC` [CBK288234], the viability at 28.5 h, 10 µM (% viability) was 92.2%. On the same count and under the same terms, next, `CN(C)c1ccc(Nc2nc(NCCO)c3ccccc3n2)cc1` [CBK268392C]: 87.6%.

As for `CC(C)c1cc(C(=O)N2CCCCCC2c2cnn(C)c2)no1` (stereo not drawn) [CBK284971], the viability at 28.5 h, 10 µM (% viability) was determined as 108%. Take `CN1C(=O)C2(N=C(N)NC(Nc3ccc(F)cc3)=N2)c2ccccc21` (stereo not drawn) [CBK270285]: under “% viability”, the viability at 28.5 h, 10 µM came to 94.8%. Turning to `O=C(Cn1cccc(C(=O)Nc2ccc(F)cc2)c1=O)Nc1nc2c(s1)CCCCC2` [CBK286055], under “% viability”, the viability at 28.5 h, 10 µM came to 84.7%. Still for that read-out and setting: next, `COc1cccc(-c2nn(CCC#N)cc2C(=O)N2CCCCC2)c1` [CBK305942]: 101%; `Cc1ccccc1CSCC(=O)NCCN1CCOCC1` [CBK269207]: 103%. The same measure, in the same setting: in the case of `CCN(CC)C(=O)C1CCCN(C(=O)NCCCN2CCN(C)CC2)C1` (stereo not drawn) [CBK156115] it was 89.7%; in that of `Cc1ccccc1C(=O)NC(=S)Nc1sc2c(c1C(N)=O)CCC2` [CBK262107], 88.9%. Same read-out and setting: in the case of `COc1cccc2sc(NC(=O)CN3CCOCC3)nc12` [CBK149281] it was 98.8%; in that of `COc1cccc2sc(Nc3nc4ccc(S(C)(=O)=O)cc4s3)nc12` [CBK287472], 104%; in that of `Cc1ccc(S(=O)(=O)c2ccc(C)c(S(=O)(=O)N3CCC(C)CC3)c2)cc1S(=O)(=O)N1CCC(C)CC1` [CBK261743], 95.8%.

Take `COC(=O)C1C2CCN(CC2)C1SCc1cccc(C(F)(F)F)c1` (stereo not drawn) [CBK010829C]: the viability at 28.5 h, 10 µM (% viability) was 87.1%. The same measure, in the same setting: next, `O=C1C=C([C@@H]2O[C@H](CO)[C@H](O)C2O)C(=O)N1` (stereo partly drawn) [CBK201255]: 101%; `Brc1ccc(NCc2ccccn2)cc1` [CBK026347]: 104%.

As for `COc1ccc(C(=O)N2CCN3C(=O)CCC32C)s1` (stereo not drawn) [CBK282058], the viability at 28.5 h, 10 µM (% viability) was 98.4%. The same measure, in the same setting: next, `CCOC(=O)CN/C(=N/O)c1c(Cl)cccc1Cl` [CBK022374]: 99.6%. Regarding `Cc1oc(CSCc2cc(C(=O)O)c(C)o2)cc1C(=O)O` [CBK264291], under “% viability”, the viability at 28.5 h, 10 µM is 90.7%. Same read-out and setting: next, `Cc1nc(N2CCOCC2)cc(N2CCN(C(=O)C3CCCC3)CC2)n1` [CBK307602]: 87.5%; `Cc1ccc2[nH]c(SCc3nc(O)c4ccccc4n3)nc2c1` [CBK269908]: 84%; `Cc1c(C(=O)O)sc(S(=O)(=O)N2CCN(C(=O)Cc3ccsc3)CC2)c1C(=O)O` [CBK297134]: 89.8%. For the compound `CNC(=O)Oc1ccc(C2(C)SCCS2)cc1` [CBK023078], the viability at 28.5 h, 10 µM came out at 98.9%. On to `Cc1ccc(CNCCNCCO)s1` [CBK278168C], for which the viability at 28.5 h, 10 µM (% viability) came to 108%. As to `COc1ccc(C[C@@H]2NC(=O)[C@@H]3CN(C(=O)c4ccc(OC)cc4)CCN3C2=O)cc1` [CBK289598], the viability at 28.5 h, 10 µM (% viability) stood at 94.1%. With `CCOC(=O)C(NC(=O)c1cn(C)cn1)c1cccc(C)c1C` (stereo not drawn) [CBK304098], under “% viability”, the viability at 28.5 h, 10 µM worked out at 107%. Still for that read-out and setting: next, `C[C@@H]1C(=O)Nc2ccc(F)cc2N1C(=O)N1CCCC1` [CBK007936]: 96%; `CC(=O)NC(CCC(N)=O)C(=O)N1CC2(CCCC2)c2c(F)cccc21` (stereo not drawn) [CBK306412]: 82.9%. Consider `CC(C)(C)c1ccc(CNC(=O)C2CCCN2S(=O)(=O)c2ccc3ccccc3c2)cc1` (stereo not drawn) [CBK265020], for which, where the note is “% viability”, the viability at 28.5 h, 10 µM is 109%. The same measure, in the same setting: next, `Cn1c(=O)n(Cc2ccccn2)c(=O)c2cnc(-c3ccncc3)nc21` [CBK288592]: 79%; `Nc1ncc(-c2ccoc2)nc1-c1ccc(F)c(Cl)c1` [CBK063982]: 93.9%; `O=C(O)C1CCN(c2ncnc3scc(-c4ccccc4)c23)CC1` [CBK076784]: 95.6%. For `CC(C(=O)NC1(C#N)CCCCC1)N1CCOC(Cn2cncn2)C1` (stereo not drawn) [CBK305359], the viability at 28.5 h, 10 µM (% viability) amounted to 101%. The same measure, in the same setting: in the case of `O=C(C1CCCC1)N1CCC(c2cccc(Cc3ccccc3Cl)n2)CC1` [CBK286507] it was 87.6%.

These data come from publication PMC12040169 (PLOS Biology, 2025).
